# Tested on: Platelet
# Assay: Inhibition of arachidonic acid-induced platelet aggregation in rabbit […] by turbidimetric method
# Type: functional, cell-based
# Settings: Oryctolagus cuniculus
row,Compound,IC50
1,COc1cc2c(OC)c3c(c(-c4ccc5c(c4)OCO5)c2cc1OC)C(=O)OC3 [JUSTICIDIN A],31.7 µM
2,COc1cc2c(OC)c3c(c(-c4ccc5c(c4)OCO5)c2cc1OC)COC3=O [NEOJUSTICIN B],50.8 µM
3,COc1c2c(c(-c3ccc4c(c3)OCO4)c3cc4c(cc13)OCO4)C(=O)OC2 [TAIWANIN E METHYL ETHER],1.7 µM
4,O=C1OCc2c1c(-c1ccc3c(c1)OCO3)c1cc3c(cc1c2O)OCO3 [TAIWANIN E],8 µM

# Next, values leading:
row,IC50,Compound
1,20.3 µM,CC(=O)Oc1ccccc1C(=O)O [ASPIRIN]
2,18.8 µM,COc1ccc(-c2c3c(c(OC)c4cc5c(cc24)OCO5)COC3=O)cc1OC [CHINENSINAPHTHOL METHYL ETHER]
3,> 100 µM,COc1cc2c(O)c3c(c(-c4ccc5c(c4)OCO5)c2cc1OC)C(=O)OC3 [DIPHYLLIN]
4,0.21 µM,COc1ccc2c(c1)c(CC(=O)O)c(C)n2C(=O)c1ccc(Cl)cc1 [INDOMETHACIN]
5,1.1 µM,COc1c2c(c(-c3ccc4c(c3)OCO4)c3cc4c(cc13)OCO4)COC2=O [NEOJUSTICIN A]

# Reference: ChEMBL document CHEMBL1158294, “Antiplatelet arylnaphthalide lignans from Justicia procumbens” (J Nat Prod, 1996)
